# Read-outs that look alike come from different tables or passages of the source.
# Tests used:
# hERG = hERG (Homo sapiens (Human), UniProt Q12809); experiment: Patch clamp assay (hERG tail currents, whole-cell); assay type: cell-based; conditions: hERG transfected HEK 293 cells; for hERG % Remaining 10 μM: 10 μM compound; for hERG % Remaining 30 μM: 30 μM compound; for hERG % Remaining 100 μM: 100 μM compound
# Menin-MLL = Menin-MLL (Homo sapiens (Human), UniProt O00255); experiment: Determination of binding constants (Ki) to Menin-MLL (HTRF)
# Sequence of Menin-MLL (O00255 whole entry): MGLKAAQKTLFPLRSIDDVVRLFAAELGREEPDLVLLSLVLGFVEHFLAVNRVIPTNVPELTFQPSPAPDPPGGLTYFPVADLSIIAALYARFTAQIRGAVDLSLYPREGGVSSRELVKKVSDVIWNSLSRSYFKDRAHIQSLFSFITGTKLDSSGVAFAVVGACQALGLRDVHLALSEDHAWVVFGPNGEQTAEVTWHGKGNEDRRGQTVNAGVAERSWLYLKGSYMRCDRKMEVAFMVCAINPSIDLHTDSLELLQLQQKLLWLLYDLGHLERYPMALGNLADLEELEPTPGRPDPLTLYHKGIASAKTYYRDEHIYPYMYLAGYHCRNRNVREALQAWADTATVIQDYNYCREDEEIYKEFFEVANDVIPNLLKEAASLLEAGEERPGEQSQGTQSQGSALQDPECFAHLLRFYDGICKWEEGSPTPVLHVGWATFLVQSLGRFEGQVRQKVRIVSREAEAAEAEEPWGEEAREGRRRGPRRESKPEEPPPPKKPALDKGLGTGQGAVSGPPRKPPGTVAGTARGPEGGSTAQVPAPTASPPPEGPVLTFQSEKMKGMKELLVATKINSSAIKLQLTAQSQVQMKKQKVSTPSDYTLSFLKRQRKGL
# [1] = HTRF, 0.25 nM H-FL-Menin, 3.2 nM FITC-MLL-4-43, 24 hr incubation
# [2] = HTRF, 0.25 nM H-FL-Menin, 3.2 nM FITC-MLL-4-43, 24 hr incubation, read-out: Menin-MLL Ki HTRF Assay: Ki
# Sequence of hERG (Q12809 whole entry): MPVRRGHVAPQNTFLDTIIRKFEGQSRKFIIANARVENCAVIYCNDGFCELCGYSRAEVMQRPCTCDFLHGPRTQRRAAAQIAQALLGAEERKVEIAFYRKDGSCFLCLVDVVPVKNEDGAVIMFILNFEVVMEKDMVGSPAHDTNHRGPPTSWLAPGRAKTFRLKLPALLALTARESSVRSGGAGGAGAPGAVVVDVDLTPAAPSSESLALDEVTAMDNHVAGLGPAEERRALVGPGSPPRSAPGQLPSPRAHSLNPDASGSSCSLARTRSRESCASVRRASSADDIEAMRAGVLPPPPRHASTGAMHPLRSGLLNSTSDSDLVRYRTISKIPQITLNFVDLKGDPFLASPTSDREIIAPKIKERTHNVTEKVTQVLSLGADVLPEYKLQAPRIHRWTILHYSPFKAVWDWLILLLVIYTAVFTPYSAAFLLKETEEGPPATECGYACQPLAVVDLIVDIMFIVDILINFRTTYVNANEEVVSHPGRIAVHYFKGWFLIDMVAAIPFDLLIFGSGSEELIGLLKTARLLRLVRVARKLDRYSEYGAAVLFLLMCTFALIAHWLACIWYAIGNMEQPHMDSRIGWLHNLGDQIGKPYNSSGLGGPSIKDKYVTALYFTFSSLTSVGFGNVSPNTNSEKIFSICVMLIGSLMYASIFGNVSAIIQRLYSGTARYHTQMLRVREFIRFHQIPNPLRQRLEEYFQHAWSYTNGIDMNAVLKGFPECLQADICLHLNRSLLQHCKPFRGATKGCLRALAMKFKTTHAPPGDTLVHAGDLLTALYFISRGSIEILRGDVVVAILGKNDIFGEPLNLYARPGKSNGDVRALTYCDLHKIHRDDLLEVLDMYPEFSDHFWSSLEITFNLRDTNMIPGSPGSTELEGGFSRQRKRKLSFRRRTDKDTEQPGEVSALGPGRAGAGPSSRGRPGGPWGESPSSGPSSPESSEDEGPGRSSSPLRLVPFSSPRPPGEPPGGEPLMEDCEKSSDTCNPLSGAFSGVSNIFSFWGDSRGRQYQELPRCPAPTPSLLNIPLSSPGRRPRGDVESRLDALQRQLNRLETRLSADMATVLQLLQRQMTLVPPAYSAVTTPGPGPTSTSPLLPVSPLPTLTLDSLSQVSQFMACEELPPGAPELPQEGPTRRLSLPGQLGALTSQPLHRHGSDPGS
SMILES,hERG % Remaining 10 μM (hERG),hERG % Remaining 30 μM (hERG),EC50 (Menin-MLL; [1]),Ki (Menin-MLL; [2]),Ki (Menin-MLL),IC50 (hERG),hERG % Remaining 1 μM (hERG; 1 μM compound),hERG % Remaining 3 μM (hERG; 3 μM compound),hERG % Remaining 100 μM (hERG)
"CCN(C(=O)c1cc(F)ccc1Oc1cncnc1N1CC2(CCN(C[C@@H]3CC[C@@H](NS(=O)(=O)c4ccccn4)CO3)CC2)C1)C(C)C [Compound 58, N-ethyl-5-fluoro-N-isopropyl-2-((4-(7-(((2S,5R)-5-(pyridine-2-sulfonamido)tetrahydro-2H-pyran-2-yl)methyl)-2,7-diazaspiro[3.5]nonan-2-yl)pyrimidin-5-yl)oxy)benzamide]",+++ (“+++” means ≥66%),++ (“++” means ≥33% and <66%),< 50 nM,< 1 nM,,,,,
"CCN(C(=O)c1cc(F)ccc1Oc1cncnc1N1CC2(CCN(C[C@@H]3CC[C@@H](NC(=O)NCC(F)(F)F)CO3)CC2)C1)C(C)C [Compound 37, N-ethyl-5-fluoro-N-isopropyl-2-((4-(7-(((2S,5R)-5-(3-(2,2,2-trifluoroethyl)ureido)tetrahydro-2H-pyran-2-yl)methyl)-2,7-diazaspiro[3.5]nonan-2-yl)pyrimidin-5-yl)oxy)benzamide]",+ (“+” means <33%),+ (“+” means <33%),< 50 nM,< 1 nM,,,,,
"CCN(CC)S(=O)(=O)N[C@@H]1CC[C@@H](CN2CCC3(CC2)CN(c2ncncc2Oc2ccc(F)cc2C(=O)N(CC(F)F)C(C)C)C3)OC1 [Compound 97, 2-((4-(7-(((2S,5R)-5-((N,N-Diethylsulfamoyl)amino)tetrahydro-2H-pyran-2-yl)methyl)-2,7-diazaspiro[3.5]nonan-2-yl)pyrimidin-5-yl)oxy)-N-(2,2-difluoroethyl)-5-fluoro-N-isopropylbenzamide]",++ (“++” means ≥33% and <66%),+ (“+” means <33%),< 50 nM,< 1 nM,,,,,
"CCN(C(=O)c1cc(F)ccc1Oc1cncnc1N1CC2(CCN(C[C@@H]3CC[C@@H](NS(=O)(=O)NC)CO3)CC2)C1)C(C)C [Compound 76, N-Ethyl-5-fluoro-N-isopropyl-2-((4-(7-(((2S,5R)-5-((N-methylsulfamoyl)amino)tetrahydro-2H-pyran-2-yl)methyl)-2,7-diazaspiro[3.5]nonan-2-yl)pyrimidin-5-yl)oxy)benzamide]",+++ (“+++” means ≥66%),+++ (“+++” means ≥66%),< 50 nM,< 1 nM,,,,,
"CCS(=O)(=NC)N[C@@H]1CC[C@@H](CN2CCC3(CC2)CN(c2ncncc2Oc2ccc(F)cc2C(=O)N(C(C)C)C(C)C)C3)OC1 (stereo partly drawn) [Compound 231, 5-Fluoro-N,N-diisopropyl-2-((4-(7-(((2S,5R)-5-(N′-methylethylsulfonoamidimidamido)tetrahydro-2H-pyran-2-yl)methyl)-2,7-diazaspiro[3.5]nonan-2-yl)pyrimidin-5-yl)oxy)benzamide]",,+++ (“+++” means ≥66%),,,< 1 nM,,,,
"Cc1nc(S(=O)(=O)N[C@@H]2CC[C@@H](CN3CCC4(CC3)CN(c3ncncc3Oc3ccc(F)cc3C(=O)N3[C@H](C)COC[C@H]3C)C4)OC2)cs1 [Compound 122, N-((3R,6S)-6-((2-(5-(2-((3R,5R)-3,5-Dimethylmorpholine-4-carbonyl)-4-fluorophenoxy)pyrimidin-4-yl)-2,7-diazaspiro[3.5]nonan-7-yl)methyl)tetrahydro-2H-pyran-3-yl)-2-methylthiazole-4-sulfonamide]",,+++ (“+++” means ≥66%),,< 1 nM,,≥ 50000 nM,,,
"Cc1c(S(=O)(=O)N[C@@H]2CC[C@@H](CN3CCC4(CC3)CN(c3ncncc3Oc3ccc(F)cc3C(=O)N(CC(F)F)C(C)C)C4)OC2)cnn1C [Compound 104, N-(2,2-Difluoroethyl)-2-((4-(7-(((2S,5R)-5-((1,5-dimethyl-1H-pyrazole)-4-sulfonamido)tetrahydro-2H-pyran-2-yl)methyl)-2,7-diazaspiro[3.5]nonan-2-yl)pyrimidin-5-yl)oxy)-5-fluoro-N-isopropylbenzamide]",,+++ (“+++” means ≥66%),,< 1 nM,,,,,
"CO[C@H]1CCN(S(=O)(=O)N[C@@H]2CC[C@@H](CN3CCC4(CC3)CN(c3ncncc3Oc3ccc(F)cc3C(=O)N(C(C)C)C(C)C)C4)OC2)C1 [Compound 210, 5-Fluoro-N,N-diisopropyl-2-((4-(7-(((2S,5R)-5-(((S)-3-methoxypyrrolidine)-1-sulfonamido)tetrahydro-2H-pyran-2-yl)methyl)-2,7-diazaspiro[3.5]nonan-2-yl)pyrimidin-5-yl)oxy)benzamide]",,+++ (“+++” means ≥66%),,< 1 nM,,,,,
"CCS(=O)(=O)N[C@@H]1CC[C@@H](CN2CCC3(CC2)CN(c2ncncc2Oc2ccc(F)cc2C(=O)N(CC(F)F)C(C)C)C3)OC1 [Compound 34, N-(2,2-difluoroethyl)-2-((4-(7-(((2S,5R)-5-(ethylsulfonamido)tetrahydro-2H-pyran-2-yl)methyl)-2,7-diazaspiro[3.5]nonan-2-yl)pyrimidin-5-yl)oxy)-5-fluoro-N-isopropylbenzamide]",+++ (“+++” means ≥66%),++ (“++” means ≥33% and <66%),< 50 nM,< 1 nM,,25000 to 50000 nM,+++ (“+++” means ≥66%),+++ (“+++” means ≥66%),+ (“+” means <33%)
"CC(C)N(CC#N)C(=O)c1cc(F)ccc1Oc1cncnc1N1CC2(CCN(C[C@@H]3CC[C@@H](NS(=O)(=O)N4CCC4)CO3)CC2)C1 [Compound 182, 2-((4-(7-(((2S,5R)-5-(Azetidine-1-sulfonamido)tetrahydro-2H-pyran-2-yl)methyl)-2,7-diazaspiro[3.5]nonan-2-yl)pyrimidin-5-yl)oxy)-N-(cyanomethyl)-5-fluoro-N-isopropylbenzamide]",,+++ (“+++” means ≥66%),,< 1 nM,,,,,
"CC(C)N(C(=O)c1cc(F)ccc1Oc1cncnc1N1CC2(CCN(C[C@@H]3CC[C@@H](NS(=O)(=O)N(C)C)CO3)CC2)C1)[C@@H]1CCOC1 [Compound 167, 2-((4-(7-(((2S,5R)-5-((N,N-Dimethylsulfamoyl)amino)tetrahydro-2H-pyran-2-yl)methyl)-2,7-diazaspiro[3.5]nonan-2-yl)pyrimidin-5-yl)oxy)-5-fluoro-N-isopropyl-N-((R)-tetrahydrofuran-3-yl)benzamide]",,+++ (“+++” means ≥66%),,< 1 nM,,≥ 50000 nM,,,+++ (“+++” means ≥66%)
"CCN(C(=O)c1cc(F)ccc1Oc1cncnc1N1CC2(CCN(C[C@@H]3CC[C@@H](NS(=O)(=O)NC4CC4)CO3)CC2)C1)C(C)C [Compound 142, 2-((4-(7-(((2S,5R)-5-((N-Cyclopropylsulfamoyl)amino)tetrahydro-2H-pyran-2-yl)methyl)-2,7-diazaspiro[3.5]nonan-2-yl)pyrimidin-5-yl)oxy)-N-ethyl-5-fluoro-N-isopropylbenzamide]",,++ (“++” means ≥33% and <66%),,< 1 nM,,,,,
"CC(C)N(C(=O)c1cc(F)ccc1Oc1cncnc1N1CC2(CCN(C[C@@H]3CC[C@@H](NS(=O)(=O)N(C)C(C)C)CO3)CC2)C1)C1CC(F)(F)C1 [Compound 119, N-(3,3-Difluorocyclobutyl)-5-fluoro-N-isopropyl-2-((4-(7-(((2S,5R)-5-((N-isopropyl-N-methylsulfamoyl)amino)tetrahydro-2H-pyran-2-yl)methyl)-2,7-diazaspiro[3.5]nonan-2-yl)pyrimidin-5-yl)oxy)benzamide]",,+ (“+” means <33%),,< 1 nM,,,,,
"CC(C)N(CC#N)C(=O)c1cc(F)ccc1Oc1cncnc1N1CC2(CCN(C[C@@H]3CC[C@@H](NS(=O)(=O)N(C)C)CO3)CC2)C1 [Compound 181, N-(Cyanomethyl)-2-((4-(7-(((2S,5R)-5-((N,N-dimethylsulfamoyl)amino)tetrahydro-2H-pyran-2-yl)methyl)-2,7-diazaspiro[3.5]nonan-2-yl)pyrimidin-5-yl)oxy)-5-fluoro-N-isopropylbenzamide]",,+++ (“+++” means ≥66%),,< 1 nM,,,,,
"CC(C)N(C(=O)c1cc(F)ccc1Oc1cncnc1N1CC2(CCN(C[C@@H]3CC[C@@H](NS(=O)(=O)N4CCOCC4)CO3)CC2)C1)C(C)C [Compound 78, 5-Fluoro-N,N-diisopropyl-2-((4-(7-(((2S,5R)-5-(morpholine-4-sulfonamido)tetrahydro-2H-pyran-2-yl)methyl)-2,7-diazaspiro[3.5]nonan-2-yl)pyrimidin-5-yl)oxy)benzamide]",+++ (“+++” means ≥66%),+++ (“+++” means ≥66%),< 50 nM,< 1 nM,,,,,
"Cc1nc(S(=O)(=O)N[C@@H]2CC[C@@H](CN3CCC4(CC3)CN(c3ncncc3Oc3ccc(F)cc3C(=O)N(C(C)C)C(C)C)C4)OC2)cs1 [Compound 81, 5-Fluoro-N,N-diisopropyl-2-((4-(7-(((2S,5R)-5-((2-methylthiazole)-4-sulfonamido)tetrahydro-2H-pyran-2-yl)methyl)-2,7-diazaspiro[3.5]nonan-2-yl)pyrimidin-5-yl)oxy)benzamide]",++ (“++” means ≥33% and <66%),++ (“++” means ≥33% and <66%),,< 1 nM,,,,,
"CC(C)N(CC(F)F)C(=O)c1cc(F)ccc1Oc1cncnc1N1CC2(CCN(C[C@@H]3CC[C@@H](NS(=O)(=O)NC4CC4)CO3)CC2)C1 [Compound 149, 2-((4-(7-(((2S,5R)-5-((N-Cyclopropylsulfamoyl)amino)tetrahydro-2H-pyran-2-yl)methyl)-2,7-diazaspiro[3.5]nonan-2-yl)pyrimidin-5-yl)oxy)-N-(2,2-difluoroethyl)-5-fluoro-N-isopropylbenzamide]",,+++ (“+++” means ≥66%),,< 1 nM,,,,,
